The source of these data is ChEMBL document CHEMBL1154101, “Purinergic P2X(7) receptor antagonists: Chemistry and fundamentals of biological screening” (Bioorg Med Chem, 2009).

For assay [1], the target named is T1, P2X purinoceptor 7 (Homo sapiens, UniProt Q99572).
T1 sequence (Q99572 whole entry): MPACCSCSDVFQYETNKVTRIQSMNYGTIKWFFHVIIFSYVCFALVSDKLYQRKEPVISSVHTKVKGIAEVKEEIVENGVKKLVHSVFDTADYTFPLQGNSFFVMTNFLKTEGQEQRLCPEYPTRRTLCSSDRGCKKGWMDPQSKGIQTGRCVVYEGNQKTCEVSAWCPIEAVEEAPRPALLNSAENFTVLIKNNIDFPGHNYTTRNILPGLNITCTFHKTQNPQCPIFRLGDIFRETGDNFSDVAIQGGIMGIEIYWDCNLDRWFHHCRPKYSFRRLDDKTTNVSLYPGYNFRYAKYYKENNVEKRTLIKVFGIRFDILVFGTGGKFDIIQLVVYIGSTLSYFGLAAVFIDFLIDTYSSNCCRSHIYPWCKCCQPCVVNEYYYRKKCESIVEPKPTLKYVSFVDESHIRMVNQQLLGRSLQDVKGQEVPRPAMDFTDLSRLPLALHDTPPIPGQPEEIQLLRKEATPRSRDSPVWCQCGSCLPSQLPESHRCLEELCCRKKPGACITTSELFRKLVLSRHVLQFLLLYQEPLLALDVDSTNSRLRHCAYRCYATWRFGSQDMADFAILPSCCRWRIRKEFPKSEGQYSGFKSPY
The assay is described as follows: Antagonist activity at human recombinant P2X7 receptor expressed in human 1321N1 cells assessed as inhibition of BzATP-induced pore formation flux by fluorometric assay. In kind it is functional, cell-based.

The target of assay [2] is T1, P2X purinoceptor 7. Kind of assay: Antagonist activity at human recombinant P2X7 receptor expressed in human THP1 cells assessed as inhibition of BzATP-induced IL1-beta release by enzyme-linked immunosorbent assay. In kind it is functional, cell-based, THP-1.
For assay [3], the target named is T1, P2X purinoceptor 7. Kind of assay: Antagonist activity at P2X7 receptor in human THP1 cells assessed as inhibition of BzATP-induced pore formation. The format is functional, cell-based, THP-1.
The target of assay [4] is T2, P2X purinoceptor 7 (Rattus norvegicus, UniProt Q64663).
T2 sequence (Q64663 whole entry): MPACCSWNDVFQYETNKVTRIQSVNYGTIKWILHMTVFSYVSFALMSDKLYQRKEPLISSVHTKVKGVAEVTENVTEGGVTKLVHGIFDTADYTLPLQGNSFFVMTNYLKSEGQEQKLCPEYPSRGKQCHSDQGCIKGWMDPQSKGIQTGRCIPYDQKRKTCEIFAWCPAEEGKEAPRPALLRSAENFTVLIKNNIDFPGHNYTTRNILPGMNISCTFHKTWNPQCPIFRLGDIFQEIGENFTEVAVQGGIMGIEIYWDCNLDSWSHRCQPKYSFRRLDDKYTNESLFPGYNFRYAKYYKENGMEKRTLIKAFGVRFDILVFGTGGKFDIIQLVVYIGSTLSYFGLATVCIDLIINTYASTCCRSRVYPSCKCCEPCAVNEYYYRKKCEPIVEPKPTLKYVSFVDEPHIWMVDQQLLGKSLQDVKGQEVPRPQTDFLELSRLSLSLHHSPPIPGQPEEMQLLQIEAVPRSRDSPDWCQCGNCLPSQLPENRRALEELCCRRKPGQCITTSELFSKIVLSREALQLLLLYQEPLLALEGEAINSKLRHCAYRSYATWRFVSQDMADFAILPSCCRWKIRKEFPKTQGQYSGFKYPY
Kind of assay: Binding affinity at rat P2X7 receptor.

For the compound `COc1ccc(CC(=O)NC(N/C(=N/C#N)Nc2cccc3ncccc23)C(C)(C)C)cc1OC` (stereo unspecified), the values for the IC50 in assay [1] and in assay [2] were 92 nM and 156 nM, respectively.

In the case of `CN([C@@H](Cc1ccc(OS(=O)(=O)c2cccc3cnccc23)cc1)C(=O)N1CCN(c2ccccc2)CC1)S(=O)(=O)c1cccc2cnccc12`, the IC50 – broadly, the concentration at which inhibition is half-maximal – in assay [3] was 300 nM.

In turn, `[3H]c1ccc([C@H](C)N/C(=N/C#N)Nc2cccc3ncccc23)cc1` gave an IC50 in assay [4] of 10 nM.

`N=C1N[C@@H]2O[C@@H]3NC(=N)N[C@]34[C@H]([C@H](CNC(=O)c3cc(Br)c(Br)[nH]3)[C@@H](CNC(=O)c3cc(Br)c(Br)[nH]3)[C@@H]4O[C@H]3[C@H](CNC(=O)c4cc(Br)c(Br)[nH]4)[C@@H](CNC(=O)c4cc(Br)c(Br)[nH]4)[C@@H]4[C@]5(O)NC(=N)N[C@@H]5O[C@@H]5NC(=N)N[C@]453)[C@]2(O)N1` [STYLISSADINE A]: the IC50 in assay [3] came to 700 nM.

As for `N=C1N[C@@H]2O[C@@H]3NC(=N)N[C@]34[C@H]([C@H](CNC(=O)c3cc(Br)c(Br)[nH]3)[C@@H](CNC(=O)c3cc(Br)c(Br)[nH]3)[C@@H]4O[C@H]3[C@H](CNC(=O)c4cc(Br)c(Br)[nH]4)[C@@H](CNC(=O)c4cc(Br)c(Br)[nH]4)[C@H]4[C@]5(O)NC(=N)N[C@@H]5O[C@@H]5NC(=N)N[C@]534)[C@]2(O)N1` [STYLISSADINE B], the IC50 in assay [3] is 1800 nM.
